# From patent US20120100990A1, “4 -AMINOPICOLINATES AND THEIR USE AS HERBICIDES” (SYNGENTA CROP PROTECTION LLC, priority 2009, published 2012)
# What was measured:
# Assay type in all cases: in vivo
# [1] = system: Echinochloa crus-galli (ECHCG); assay: Post-emergence biological efficacy, glasshouse pot test; details: 312 h, 1,000 g/ha, evaluated after 13 days, 100=total damage, 0=no damage, read-out: Percentage damage caused to weed species, post-emergence, ECHCG
# Procedure: (§1) Seeds of Alopecurus myosuroides (ALOMY), Setaria faberi (SETFA), Echinochloa crus-galli (ECHCG), Solanum nigrum (SOLNI), Amaranthus retroflexus (AMARE) and Ipomea hederaceae (IPOHE) were sown in standard soil in pots. After cultivation for 8 days under controlled conditions in a glasshouse (at 24/16° C., day/night; 14 hours light; 65% humidity), the plants were sprayed with an aqueous spray solution derived from the formulation of the technical active ingredient in acetone/water (50:50) solution containing 0.5% Tween 20 (polyoxyethylene sorbitan monolaurate, CAS RN 9005-64-5) to give a final dose of 1000 or 250 g/ha of test compound. The test plants were then grown on under controlled conditions in a glasshouse (at 24/16° C., day/night; 14 hours light; 65% humidity) and watered twice daily. After 13 days the test was evaluated (100=total damage to plant; 0=no damage to plant).
# [2] = system: Amaranthus retroflexus (AMARE); assay: as above; details: 312 h, 1,000 g/ha, evaluated after 13 days, 100=total damage, 0=no damage, read-out: Percentage damage caused to weed species, post-emergence, AMARE
# Procedure: as §1
# [3] = system: Ipomea hederaceae (IPOHE); assay: as above; details: Ipomoea hederacea, 312 h, 1,000 g/ha, evaluated after 13 days, 100=total damage, 0=no damage, read-out: Percentage damage caused to weed species, post-emergence, IPOHE
# Procedure: as §1
# [4] = system: Alopecurus myosuroides (ALOMY); assay: as above; details: 312 h, 1,000 g/ha, evaluated after 13 days, 100=total damage, 0=no damage, read-out: Percentage damage caused to weed species, post-emergence, ALOMY
# Procedure: as §1
# Setaria faberi (SETFA) [5] = assay: as above; details: 312 h, 1,000 g/ha, evaluated after 13 days, 100=total damage, 0=no damage, read-out: Percentage damage caused to weed species, post-emergence, SETFA
# Procedure: as §1
# Solanum nigrum (SOLNI) [6] = assay: as above; details: 312 h, 1,000 g/ha, evaluated after 13 days, 100=total damage, 0=no damage, read-out: Percentage damage caused to weed species, post-emergence, SOLNI
# Procedure: as §1
# [7] = system: Echinochloa crus-galli (ECHCG); assay: Pre-emergence biological efficacy, glasshouse pot test; details: 312 h, 1,000 g/ha, evaluated after 13 days, 100=total damage, 0=no damage, read-out: Percentage damage caused to weed species, pre-emergence, ECHCG
# Procedure: (§2) Seeds of Alopecurus myosuroides (ALOMY), Setaria faberi (SETFA), Echinochloa crus-galli (ECHCG), Solanum nigrum (SOLNI), Amaranthus retroflexus (AMARE) and Ipomea hederaceae (IPOHE) were sown in standard soil in pots. After cultivation for one day under controlled conditions in a glasshouse (at 24/16° C., day/night; 14 hours light; 65% humidity), the plants were sprayed with an aqueous spray solution derived from the formulation of the technical active ingredient in acetone/water (50:50) solution containing 0.5% Tween 20 (polyoxyethylene sorbitan monolaurate, CAS RN 9005-64-5) to give a final dose of 1000 or 250 g/ha of test compound. The test plants were then grown under controlled conditions in the glasshouse (at 24/16° C., day/night; 14 hours light; 65% humidity) and watered twice daily. After 13 days the test was evaluated (100=total damage to plant; 0=no damage to plant).
# [8] = system: Amaranthus retroflexus (AMARE); assay: as above; details: 312 h, 1,000 g/ha, evaluated after 13 days, 100=total damage, 0=no damage, read-out: Percentage damage caused to weed species, pre-emergence, AMARE
# Procedure: as §2
# [9] = system: Ipomea hederaceae (IPOHE); assay: as above; details: Ipomoea hederacea, 312 h, 1,000 g/ha, evaluated after 13 days, 100=total damage, 0=no damage, read-out: Percentage damage caused to weed species, pre-emergence, IPOHE
# Procedure: as §2
# [10] = system: Alopecurus myosuroides (ALOMY); assay: as above; details: 312 h, 1,000 g/ha, evaluated after 13 days, 100=total damage, 0=no damage, read-out: Percentage damage caused to weed species, pre-emergence, ALOMY
# Procedure: as §2
# Setaria faberi (SETFA) [11] = assay: as above; details: 312 h, 1,000 g/ha, evaluated after 13 days, 100=total damage, 0=no damage, read-out: Percentage damage caused to weed species, pre-emergence, SETFA
# Procedure: as §2
# Solanum nigrum (SOLNI) [12] = assay: as above; details: 312 h, 1,000 g/ha, evaluated after 13 days, 100=total damage, 0=no damage, read-out: Percentage damage caused to weed species, pre-emergence, SOLNI
# Procedure: as §2
Structure (SMILES),pest or weed control at 1000 g/ha [1],pest or weed control at 1000 g/ha [2],pest or weed control at 1000 g/ha [3],pest or weed control at 1000 g/ha [4],pest or weed control at 1000 g/ha (Setaria faberi (SETFA) [5]),pest or weed control at 1000 g/ha (Solanum nigrum (SOLNI) [6]),pest or weed control at 1000 g/ha [7],pest or weed control at 1000 g/ha [8],pest or weed control at 1000 g/ha [9],pest or weed control at 1000 g/ha [10],pest or weed control at 1000 g/ha (Setaria faberi (SETFA) [11]),pest or weed control at 1000 g/ha (Solanum nigrum (SOLNI) [12])
"COC(=O)c1nc(Cl)c(Cl)c(NCc2ccccc2[N+](=O)[O-])c1C [Compound 15-43, 5,6-Dichloro-3-methyl-4-[(2-nitrophenyl-methyl)-amino]-pyridine-2-carboxylic acid methyl ester]",10%,100%,70%,40%,40%,100%,0%,90%,50%,0%,0%,70%
"COC(=O)c1nc(Cl)c(Cl)c(NCc2ccccc2[N+](=O)[O-])c1C(F)(F)F [Compound 15-444, 5,6-dichloro-4-[(2-nitrophenyl-methyl)-amino]-3-trifluoromethyl-pyridine-2-carboxylic acid methyl ester]",50%,100%,50%,10%,40%,90%,0%,30%,50%,0%,0%,30%
"COC(=O)c1nc(-c2ccc(Cl)c(OC)c2F)cc(NCc2ccc(OC)cc2OC)c1Cl [Compound 22-164, 3-Chloro-6-(4-chloro-2-fluoro-3-methoxy-phenyl)-4-[(2,4-dimethoxyphenyl-methyl)-amino]-pyridine-2-carboxylic acid methyl ester]",60%,100%,70%,0%,60%,90%,60%,80%,70%,20%,10%,80%
"COC(=O)c1nc(Cl)cc(NCc2ccc3c(c2)OCO3)c1Cl [Compound 24-2, 3,6-Dichloro-4-[(3,4-methylenedioxy-phenylmethyl)-amino]-pyridine-2-carboxylic acid methyl ester]",20%,100%,70%,50%,80%,100%,0%,100%,80%,10%,70%,100%
"COC(=O)c1nc(Cl)cc(NCc2ccco2)c1Cl [Compound 26-2, 3,6-dichloro-4-[(furan-2-ylmethyl)-amino]-pyridine-2-carboxylic acid methyl ester]",30%,100%,60%,40%,90%,100%,30%,100%,90%,70%,90%,100%
"COC(=O)c1nc(Cl)cc(NCc2ccco2)c1C1CC1 [Compound 26-7, 6-chloro-3-cyclopropyl-4-[(furan-2-ylmethyl)-amino]-pyridine-2-carboxylic acid methyl ester]",0%,40%,30%,0%,0%,70%,10%,60%,70%,10%,10%,80%
"C=Cc1c(NCc2ccco2)cc(Cl)nc1C(=O)O [Compound 26-11, 6-chloro-3-ethenyl-4-[(furan-2-ylmethyl)-amino]-pyridine-2-carboxylic acid]",80%,100%,80%,80%,90%,100%,90%,100%,100%,100%,100%,100%
"C=Cc1c(NCc2ccco2)cc(Cl)nc1C(=O)OC [Compound 26-12, 6-Chloro-3-ethenyl-4-[(furan-2-ylmethyl)-amino]-pyridine-2-carboxylic acid methyl ester]",80%,100%,70%,80%,90%,100%,90%,100%,90%,90%,100%,100%
"COC(=O)c1nc(Cl)cc(NCc2ccco2)c1Br [Compound 26-17, 3-Bromo-6-chloro-4-[(furan-2-ylmethyl)-amino]-pyridine-2-carboxylic acid methyl ester]",60%,100%,60%,70%,80%,90%,50%,100%,100%,50%,80%,100%
"COC(=O)c1nc(Cl)cc(NCc2ccco2)c1C [Compound 26-19, 6-chloro-4-[(furan-2-ylmethyl)-amino]-3-methyl-pyridine-2-carboxylic acid methyl ester]",30%,100%,40%,60%,70%,90%,0%,100%,40%,70%,70%,100%
